Measurements taken from paper PMC6544337, “Development of chimeric and bifunctional antagonists for CLR/RAMP receptors” (PLoS ONE, 2019).

What was measured:
[1] = molecular target: CLR/RAMP2 receptor complex (UniProt Q16602)
[2] = molecular target: CLR/RAMP2 receptor complex (UniProt Q16602); remark: listed apart in the source
[3] = molecular target: CLR/RAMP1 receptor complex (UniProt Q16602)
[4] = molecular target: CLR/RAMP2 (Homo sapiens, UniProt O60895+Q16602); assay: CLR/RAMP2 PathHunter β-arrestin assay, agonist mode; format: cell-based; details: for CLR/RAMP2 Max Activity % of control: agonist mode, positive control ADM, CHO-K1 cells
Protocol: (§1) The bioactivity of synthetic analogs was studied using cells that stably express CLR/RAMP1 (1321N1 cells) or CLR/RAMP2 (CHO-K1 cells) receptors using CLR/RAMP1 cAMP and CLR/RAMP2 arrestin assays from DiscoveRx (Fremont, Ca). In receptor-activation assays, the dose-dependent stimulatory response was studied in duplicate, at 10 different concentrations.
The CLR/RAMP2 signaling was assayed using the CLR/RAMP2 PathHunter β-Arrestin assay. In this assay, the GPCR was fused in frame with a small enzyme donor fragment ProLink (PK) and co-expressed in cells stably expressing a fusion protein of β-arrestin and an N-terminal deletion mutant of β-galactosidase (i.e., enzyme acceptor or EA). Activation of the CLR/RAMP2 stimulates binding of β-arrestin to the PK-tagged receptor and leads to an increase in enzyme activity that can be measured using chemiluminescent PathHunter Detection Reagents. PathHunter cell lines were seeded in white walled, 384-well microplates and incubated at 37C prior to testing. For agonist determination, intermediate dilution of sample stocks was performed to generate 5X sample in assay buffer, and 5 μl of 5X sample was added to cells and incubated at 37C for 90 minutes. Vehicle concentration was 1%. For antagonistic activity determination, cells were pre-incubated with antagonist followed by agonist challenge at the EC80 concentration.

[5] = molecular target: CLR/RAMP1 (Homo sapiens, UniProt O60894+Q16602); assay: CLR/RAMP1 cAMP assay, agonist mode (DiscoveRx HitHunter cAMP XS+); format: cell-based; details: for CLR/RAMP1 Max Activity % of control: agonist mode, positive control CGRP, 1321N1 cells
Protocol: as §1
For the analysis of signaling in CLR/RAMP1-expressing cells, cAMP Hunter cell lines were expanded from freezer stocks, and cells were seeded in white walled, 384-well microplates and incubated at 37C for the appropriate time. The activity was determined using the DiscoveRx HitHunter cAMP XS+ assay. Media was aspirated from cells and replaced with 15 μl 2:1 HBSS/10mM Hepes:cAMP XS+ Ab reagent. Intermediate dilution of sample stocks was performed to generate 4X sample in assay buffer, and 5 μl of 4X sample was added to cells and incubated at 37C or room temperature for the appropriate time. Vehicle concentration was 1%.
Microplates were read with a PerkinElmer instrument for chemiluminescent signal detection.

CLR/RAMP1, sequence (Q16602 23-461): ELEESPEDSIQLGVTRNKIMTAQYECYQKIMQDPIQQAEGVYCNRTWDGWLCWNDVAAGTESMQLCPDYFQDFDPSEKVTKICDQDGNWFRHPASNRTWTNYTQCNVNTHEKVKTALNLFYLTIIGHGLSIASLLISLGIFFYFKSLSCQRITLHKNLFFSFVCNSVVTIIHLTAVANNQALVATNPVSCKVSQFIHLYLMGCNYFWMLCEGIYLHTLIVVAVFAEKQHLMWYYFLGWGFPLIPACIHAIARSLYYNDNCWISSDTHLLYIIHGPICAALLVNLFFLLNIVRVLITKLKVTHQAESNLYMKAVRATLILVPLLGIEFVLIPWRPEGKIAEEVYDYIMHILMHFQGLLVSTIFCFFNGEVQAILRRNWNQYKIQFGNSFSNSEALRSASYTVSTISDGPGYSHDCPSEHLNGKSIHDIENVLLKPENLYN
CLR/RAMP1, sequence (O60894 27-148): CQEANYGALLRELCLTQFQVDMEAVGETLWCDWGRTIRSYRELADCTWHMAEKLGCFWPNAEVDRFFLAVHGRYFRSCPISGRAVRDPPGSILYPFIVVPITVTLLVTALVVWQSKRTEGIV
CLR/RAMP2, sequence (Q16602 23-461): as the sequence (Q16602 23-461) above
CLR/RAMP2, sequence (O60895 43-175): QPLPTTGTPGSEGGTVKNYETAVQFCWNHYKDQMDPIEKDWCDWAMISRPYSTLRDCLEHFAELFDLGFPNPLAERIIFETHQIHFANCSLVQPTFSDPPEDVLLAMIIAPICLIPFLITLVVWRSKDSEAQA
CLR/RAMP2 receptor complex, sequence (Q16602 23-461, chain 1 of 2): as the sequence (Q16602 23-461) above
CLR/RAMP2 receptor complex, sequence (O60895 43-175, chain 2 of 2, further chain): as the sequence (O60895 43-175) above
CLR/RAMP1 receptor complex, sequence (Q16602 23-461, chain 1 of 2): as the sequence (Q16602 23-461) above
CLR/RAMP1 receptor complex, sequence (O60894 27-148, chain 2 of 2, further chain): as the sequence (O60894 27-148) above

EC50 of CLR/RAMP2 signalling (CHO-K1 cells, PathHunter β-Arrestin assay) [1] [nM] | IC50 of inhibition of ADM-mediated CLR/RAMP2 β-arrestin signalling (EC80 of ADM; pair blocked: ADM + m25) [2] [nM] | CLR/RAMP2 Max Activity % of control [4] | CLR/RAMP1 Max Activity % of control [5] | Compound | also measured
9 | – | – | – | adrenomedullin 14–52 (peptide) | –
– | 256 | – | – | ADM22-52 (peptide) | IC50 of inhibition of CGRP-mediated CLR/RAMP1 cAMP signalling (EC80 of CGRP; pair blocked: m4 + m24) [3]: 6.6 µM
– | – | 102 % of control | 69 % of control | CC[C@H](C)[C@H](NC(=O)[C@H](CCC(N)=O)NC(=O)[C@H](Cc1c[nH]cn1)NC(=O)[C@H](C)NC(=O)[C@H](CC(C)C)NC(=O)[C@H](CCCCN)NC(=O)[C@H](CCC(N)=O)NC(=O)[C@@H](NC(=O)[C@@H](NC(=O)[C@@H]1CSSC[C@H](NC(=O)CNC(=O)[C@@H](N)Cc2ccccc2)C(=O)N[C@@H](CCCNC(=N)N)C(=O)N[C@@H](Cc2ccccc2)C(=O)NCC(=O)N[C@@H]([C@@H](C)O)C(=O)N1)[C@@H](C)O)C(C)C)C(=O)N[C@@H](Cc1ccc(O)cc1)C(=O)N[C@@H](CCC(N)=O)C(=O)N[C@@H](Cc1ccccc1)C(=O)N[C@H](C(=O)N[C@@H](CC(=O)O)C(=O)N[C@@H](CCCCN)C(=O)N[C@@H](CC(=O)O)C(=O)N[C@@H](CCCCN)C(=O)N[C@@H](CC(=O)O)C(=O)N[C@@H](CC(N)=O)C(=O)N[C@H](C(=O)N[C@@H](C)C(=O)N1CCC[C@H]1C(=O)N[C@@H](CCCNC(=N)N)C(=O)N[C@@H](CO)C(=O)N[C@@H](CCCCN)C(=O)N[C@H](C(=O)N[C@@H](CO)C(=O)N1CCC[C@H]1C(=O)N[C@@H](CCC(N)=O)C(=O)NCC(=O)N[C@@H](Cc1ccc(O)cc1)C(N)=O)[C@@H](C)CC)C(C)C)[C@@H](C)O [ADM14-52, adrenomedullin 14–52, reference compound] | –

The remaining lines, values behind:

Compound | EC50 of CLR/RAMP2 signalling (CHO-K1 cells, PathHunter β-Arrestin assay) [1] [nM] | IC50 of inhibition of ADM-mediated CLR/RAMP2 β-arrestin signalling (EC80 of ADM; pair blocked: ADM + m25) [2] [nM] | CLR/RAMP2 Max Activity % of control [4] | CLR/RAMP1 Max Activity % of control [5] | also measured
adrenomedullin 2 (peptide) | 70 | – | – | – | –
CC[C@H](C)[C@H](NC(=O)[C@H](CCC(N)=O)NC(=O)[C@H](Cc1c[nH]cn1)NC(=O)[C@H](C)NC(=O)[C@H](CC(C)C)NC(=O)[C@H](CCCCN)NC(=O)[C@H](CCC(N)=O)NC(=O)[C@@H](NC(=O)[C@@H](NC(=O)[C@@H]1CSSC[C@H](NC(=O)CNC(=O)[C@@H](N)CCCCN)C(=O)N[C@@H](CCCNC(=N)N)C(=O)N[C@@H](Cc2ccccc2)C(=O)NCC(=O)N[C@@H]([C@@H](C)O)C(=O)N1)[C@@H](C)O)C(C)C)C(=O)N[C@@H](Cc1ccc(O)cc1)C(=O)N[C@@H](CCC(N)=O)C(=O)N[C@@H](Cc1ccccc1)C(=O)N[C@H](C(=O)N[C@@H](CC(=O)O)C(=O)N[C@@H](CCCCN)C(=O)N[C@@H](CC(=O)O)C(=O)N[C@@H](CCCCN)C(=O)N[C@@H](CC(=O)O)C(=O)N[C@@H](CC(N)=O)C(=O)N[C@@H](CO)C(=O)N[C@@H](C)C(=O)N1CCC[C@H]1C(=O)N[C@H](C(=O)N[C@@H](CC(=O)O)C(=O)N1CCC[C@H]1C(=O)N[C@@H](CO)C(=O)N[C@@H](CO)C(=O)N1CCC[C@H]1C(=O)N[C@@H](Cc1c[nH]cn1)C(=O)N[C@@H](CO)C(=O)N[C@@H](Cc1ccc(O)cc1)C(N)=O)C(C)C)[C@@H](C)O [Agonist 2] | – | – | 115 % of control | 95 % of control | EC50 ([4]; CHO-K1 cells stably expressing CLR/RAMP2, β-arrestin recruitment, 90 min at 37C, 10-point dose response in duplicate): 18 nM; EC50 ([5]; 1321N1 cells stably expressing CLR/RAMP1, cAMP read-out, chemiluminescence, 10-point dose response, 3-fold dilution, in duplicate): 31 nM
CGRP8-37 (peptide) | – | > 10000 | – | – | –
